How the values were obtained:
CEM C7 = assay: MTT cell viability assay, CEM C7; assay type: cell-based, human; conditions: Homo sapiens; CEM C7, 48 hrs
Procedure: (§1) Human cervical cancer cell lines (HeLa, ME-180 and SiHa), brain tumor cell lines (U87MG, U373MG, U87MG EGFRvIII, T98G, A172 and LN229), lymphoid leukemia (MOLT-3, MOLT-4, REH and CEMC-7), myloid leukemia (K562), pancreatic cancer (MIAPaCa-2, AsPC-1, Panc-1 and Panc 10.05), lung cancer (A549) and colon cancer (HCT116 and SW480) cell lines from American Type Culture Collection, Manassas, Va., USA were grown in IMDM or RPMI (cell specific) Medium supplemented with 10% fetal bovine serum and 1% antibiotic-antimycotic. Cells were cultured in 37° C. in an atmosphere of 5% CO2.
(§2) Viability of cancer cell lines after treatment as at the indicated times was determined by MTT assay. Briefly, 10,000 cells were plated in triplicate in 96 well plates and incubated for 24 and 48 hours in complete media in presence of varying dose of mahanine (0-50 μM). 100 ug MTT was added in each well. Incubate the plate for 1-4 hours at 37° C. and humidified 5% CO2 atmosphere. Absorbance was recorded at 550 nm with 96 well plate readers.

T98G = assay: MTT cell viability assay, T98G; assay type: cell-based, human; conditions: Homo sapiens, 48 hrs
Procedure: as §1, §2

AsPC1 = assay: MTT cell viability assay, AsPC1; assay type: cell-based, human; conditions: Homo sapiens; AsPC1, 48 hrs
Procedure: as §1, §2

U87MGEGFRvIII = assay: MTT cell viability assay, U87MGEGFRvIII; assay type: cell-based; conditions: Homo sapiens, 48 hrs treatment
Procedure: as §1, §2

[1] = system: Normal cells [heart, liver, muscle and peripheral blood mononuclear cells (PBMC)]; assay: In vitro testing on normal cells; assay type: cell-based, rat
Procedure: The cardiomyocytes from 2-day-old neonatal rat were isolated. Briefly, heart was excised and minced in pre warmed (37° C.) Ads buffer (1.2M NaCl, 198 mM HEPES, 54 mM KCl, 8.3 mM MgSO4, 55.4 mM glucose, 95 mM NaH2PO4), digested in typeII Collagenase 0.05% and Pancreatin in 3-successive digestions of 15 minutes each. Supernatant was pooled and cells palleted at 2000 g, 10 minutes. Cells were resuspended and plated in collagen coated T-25 flaks in Medium-199 enriched with 10% Fetal Bovine Serum and 1% antibiotic-antimycotic.
The hepatocytes from 2-day-old neonatal rat were isolated. Briefly, The liver were perfused through the portal vein with a calcium-free solution consisting of 150 mM NaCl, 2.8 mM KCl, 5.5 mM glucose, and 25 mM HEPES (pH 7.6) for 10 min, followed by mincing and digestion in DMEM containing 0.05% collagenase type IV for 30 minutes. The cells were centrifuged (2000 g, 10 minutes) and dispersed in DMEM enriched with 10% fetal Bovine Serum, 1% antibiotic-antimycotic.
The skeletal muscles from 2-day-old neonatal rat were isolated. Briefly, Soleus muscles were dissected minced and digested with 0.2% Type II Collagenase and 0.05% trypsin in Phosphate buffered Saline (PBS) pH 7.4, 0.15 M NaCl. […]
Viability of cancer cell lines after treatment as at the indicated times was determined by MTT assay. […] Absorbance was recorded at 550 nm with 96 well plate readers.

SiHa = assay: 7-AAD flow cytometric apoptosis, SiHa; assay type: cell-based, human; conditions: 25 μM mahanine
Procedure: U87MG, LN229, HeLa, SiHa and ME180 (1×10^6 cells) cells were cultured in 6-well plates in presence or absence of Mahanine (25 μM) for 24 hrs. Cells were washed in PBS, incubated with 7-Aminoactinomycin D (7-AAD) at 4° C. for 20 min and processed. Data acquisition was done on a FACSCalibur flow cytometer (BD) at excitation wavelength at 488 nm and emission wavelength at 647 nm and analyzed with CellQuestPro software.

[2] = system: Hsp90 client proteins (Akt); assay: Western blot of Hsp90 client proteins; assay type: cell-based, human; conditions: cervical and pancreatic cancer cell lines, 24 hrs
Procedure: Different human cancer cells (1×10^6 cells) were incubated with complete medium alone or with different dose of Mahanine (10-20 μM) as indicated. Cells were detached using trypsin-EDTA solution. They were collected by centrifugation at 1500 g for 10 mins and lysed by sonication. Aliquots containing 60 μg total cellular protein were separated by 10% SDS-PAGE and transferred to nitrocellulose membrane (MILIPORE, Bedford, Mass., USA). Membrane was blocked with blocking buffer for 1 hour at room temperature and probed with desired primary antibody Hsp90, Hsp70, Hsp40, p23, HOP, Cdc37, B-Raf, Stat-3, Bcl-xl, Akt, PARP, β-actin (Cell signaling technology, USA) and caspase-3 (Santa Cruz, USA), caspase9, cytochrome c (cell signaling technology, USA) for overnight at 4° C. followed by HRP conjugated secondary antibody and detected by ECL. For the detection of association of the Hsp90-Cdc37, Hsp90-p23 and Hsp90-HOP, total cell lysate (400 μg) was treated with anti-Hsp-90 antibody (1:100 dilutions) and incubated overnight at 4° C. The chaperonic complex was resolved by SDS-PAGE (10%), transferred and probed separately with anti-Cdc37, anti-HOP, anti-p23 and anti-Hsp-90 antibodies. In the few immunoprecipitation experiments anti-Cdc37 used as precipitating antibody and Hsp90 was used as detection antibody. […]

MIAPaCa-2 = assay: Scratch-wound haptotaxis assay, MIAPaCa-2; assay type: cell-based, human; conditions: MIAPaCa-2, highest treated cells, 6 hrs
Procedure: (§3) Highly and moderately invasive pancreatic cancer cell lines, MIAPaCa-2 and BxPC3 (1×10^6/ml/well) were cultured to >90% confluence in 6 well plate. Consequently, cell were rinsed with PBS and starved in low serum media (2 ml containing 0.5%-0.1% serum in RPMI-1640 for MIAPaCa-2 and BxPC-3) for overnight. On the following day, three separate scratch-wounds were made through the confluent cells. Scratched plate was rinsed with PBS and replaced with serum starved media containing successive doses of mahanine or EtOH for 6 hrs. Picture was taken by using phase contrast at 10× accordingly.

BxPC-3 = assay: Scratch-wound haptotaxis assay, BxPC-3; assay type: cell-based, human; conditions: BxPC-3, highest treated cells, 6 hrs
Procedure: as §3

Storage stability = assay type: physicochemical
[3] = Tissue toxicity in K562 xenograft bearing nude mice; assay type: in vivo

CC(C)=CCCC1(C)C=Cc2c(c(C)cc3c2[nH]c2cc(O)ccc23)O1 (stereo not shown) [Mahanine, mahanine]
IC50 (CEM C7): 10.2 ± 0.1 µM | IC50 (T98G): 16.1 ± 0.9 µM | IC50 (AsPC1): 17.2 ± 0.7 µM | IC50 (U87MGEGFRvIII): ~14 µM | inhibition at 50 µM ([1]; PBMC, mahanine at 50 μM, normal rat tissue cells, Vero and WI-38): 15 to 20% | sensitivity of normal cells ([1]; heart, liver, muscle and PBMC, in vitro): less sensitive | apoptosis (7-AAD+ve cells) (SiHa): 97.13% | dose enough to start significant downregulation of Akt level [2]: 15 µM | wound closure / migratory cells (MIAPaCa-2): < 5% | wound closure / migratory cells (BxPC-3): < 5% | stable storage time (Storage stability; dissolved in ethanol, −20° C.): > 6 months | stability at room temperature (Storage stability; purified compound): stable in room temperature | toxicity towards nonspecific tissues (lung, liver, spleen) [3]: no toxic effect

Reference: patent publication US8637679B2, “Process for the isolation of organic compounds useful for the treatment of cancer” (Council of Scientific and Industrial Research, priority 2011, dated 2014)
